Reference: US8178530B2, “Imidazolopyrazine compounds useful for the treatment of degenerative and inflammatory diseases” (Janssen Pharmaceutica NV, priority 2006, dated 2012)
Read-outs that look alike come from different tables or passages of the source.

Tested on: TNFα release by human PBMCs
Test: Cytokine release by LPS-stimulated human PBMCs (TNFα ELISA)
Type: cell-based
Conditions: LPS 1 μg/mL, 24 hr
Experimental: Human peripheral blood mononuclear cells (PBMCs) are isolated from “buffy coats” prepared from the blood of healthy volunteers, isolated essentially according to method of Bøyum (1984). In brief, buffy coat is diluted 1:1 with 1×PBS (Gibco) and 30 mL is carefully put on top of 20 mL Lymphoprep™ (Lucron Bioproducts) in 50 mL Falcon tubes. After centrifugation (35 min, 400 g, 18° C.) the mononuclear cells are collected from the white interphase and washed 3 times with 1×PBS by resuspending and centrifugation (10 min, 200 g). Isolated PBMCs are finally resuspended in RPMI 1640 (Cat. No. 21875, Gibco) that is supplemented with 10% heat-inactivated FBS (Hyclone).
For the assay PBMCs are seeded at 2.5E6 cells/mL in 160 μL in 96-well plates (Nunc). Serial dilution of the test compounds are made first in DMSO (Sigma) and then diluted 50-fold in M199 medium (Gibco) containing 1% heat-inactivated FBS. Compounds are further 1/10 diluted in the assay plates to obtain final DMSO concentration of 0.2%. Cells are preincubated with the compounds for 1 hr at 37° C., 5% CO2. Then, cells are stimulated with LPS (Escherichia coli serotype 026:B6, Cat. No. L2654, Sigma) that is added in a volume of 20 μL to a final concentration of 1 μg/mL and cells are further cultured for 24 hr. The plates are centrifuged and the supernatant is collected and stored at −80° C. until analysis of appropriate dilutions in ELISAs.
The following 384-well chemiluminescent ELISA protocol was developed to measure TNFα levels in the supernatant: White Lumitrac 600 384-well plates (Greiner) are coated with (40 μL/well) anti-TNFα capture antibody (Cat. No. 551220, BD Pharmingen) that is diluted to 1 μg/mL in 1×PBS (Gibco). After overnight incubation at 4° C., plates are washed with 1×PBS (80 g NaCl, 2 g KCl (Sigma), 11.5 g Na2HPO4.7H2O and 2 g KH2PO4 in 10 L milliQ; pH 7.4) and blocked with 100 μL/well buffer B (1×PBS containing 1% BSA (Sigma), 5% sucrose (Sigma) and 0.05% NaN3 (Sigma)). After 4 hr incubation at RT, blocking buffer is removed and plates are washed once with PBST (1×PBS with 0.05% Tween-20 (Sigma)). Then, 40 μL of sample is transferred to the ELISA plates and plates are incubated at 4° C. Next day, plates are washed 3 times (twice with PBST and once with PBS) and 35 μL/well biotinylated anti-TNFα antibody (Cat. No. 554511, BD Pharmingen) diluted first to a concentration of 250 ng/ml in buffer D (1×PBS with 1% BSA) is added. After 2 h of incubation at RT, plates are washed as described above and 35 μL/well of a 1/2000 dilution of streptavidin-HRP conjugate (Cat. No. SNN2004, Biosource) in buffer D is added. After 45 min, plates are washed as described above and incubated for 5 min with 50 μL/well BM Chemiluminescence ELISA Substrate POD (Roche). Readout is performed on the Luminoscan Ascent Luminometer (Labsystems) with an integration time of 100 msec delivering raw data (RLU: relative luminescence units). The following controls are included in the experiments, a maximal signal control, in which the cells are activated by LPS but only the 0.2% DMSO vehicle (and thus no compound) is added. This control indicates the maximal level of TNFα that can be achieved in the test. A minimal signal control is also included in these experiments. Here, cells are not triggered. This control returns the basal TNFα levels produced by the PBMCs. The percent inhibition (PIN) of the TNFα release, achieved by the compounds is then calculated based on the RLU data returned by the ELISA with following formula: 100−[((TNFα level compound X at concentration Y−minimal TNFα levels)/(maximal TNFα levels−minimal TNFα levels))×100]. Where compounds are tested at 8 concentrations (1/3 serial dilution), EC50-values can be calculated by curve fitting of the means of the PIN data achieved for a compound at each test concentration. […]

| Compound | EC50 (read-out: PBMC EC50) | EC50 (PBMC) |
| --- | --- | --- |
| 4-(8-{4-[1-(2,2,2-Trifluoroethyl)piperidin-4-yl]phenylamino}imidazo[1,2-a]pyrazin-5-yl)thiophene-2-carboxylic acid amide [Compound 192] | > 1000 nM | – |
| NC(=O)c1ccc(Nc2ncc(-c3cn[nH]c3)n3ccnc23)cc1 [Compound 11] | – | > 1000 nM |
| CN1CCN(c2ccc(Nc3ncc(-c4cn[nH]c4)n4ccnc34)cc2)CC1 [Compound 14] | – | > 1000 nM |
| CCN(CC)CCNC(=O)c1ccc(Nc2ncc(-c3cn[nH]c3)n3ccnc23)cc1 [Compound 32, N-(2-Diethylamino-ethyl)-4-[5-(1H-pyrazol-4-yl)-imidazo[1,2-a]pyrazin-8-ylamino]-benzamide] | – | > 1000 nM |
| O=C(NCc1cccnc1)c1ccc(Nc2ncc(-c3cn[nH]c3)n3ccnc23)cc1 [Compound 35] | – | 501 to 1000 nM |
| NS(=O)(=O)c1ccc(Nc2ncc(-c3cn[nH]c3)n3ccnc23)cc1 [Compound 36] | – | > 1000 nM |
| O=C(Nc1ccccc1)c1ccc(Nc2ncc(-c3cn[nH]c3)n3ccnc23)cc1 [Compound 41] | – | > 1000 nM |
| O=C(c1ccc(Nc2ncc(-c3cn[nH]c3)n3ccnc23)cc1)N1CCOCC1 [Compound 45] | – | > 1000 nM |
| O=C(NCCN1CCOCC1)c1ccc(Nc2ncc(-c3cn[nH]c3)n3ccnc23)cc1 [Compound 53] | – | > 1000 nM |
| O=C(NC1CCNC1)c1ccc(Nc2ncc(-c3cn[nH]c3)n3ccnc23)cc1 (stereo not drawn) [Compound 55] | – | > 1000 nM |
| CCNCCNC(=O)c1ccc(Nc2ncc(-c3cn[nH]c3)n3ccnc23)cc1 [Compound 56] | – | > 1000 nM |
| CN1CCC(NC(=O)c2ccc(Nc3ncc(-c4cn[nH]c4)n4ccnc34)cc2)C1 (stereo not drawn) [Compound 64] | – | > 1000 nM |
| CCN(CC)CCNS(=O)(=O)c1ccc(Nc2ncc(-c3cn[nH]c3)n3ccnc23)cc1 [Compound 69, N-(2-Diethylaminoethyl)-4-[5-(1H-pyrazol-4-yl)imidazo[1,2-a]pyrazin-8-ylamino]benzenesulfonamide] | – | 501 to 1000 nM |
| CS(=O)(=O)c1ccc(Nc2ncc(-c3cn[nH]c3)n3ccnc23)cc1 [Compound 71] | – | > 1000 nM |
| CCN(CC)CCNC(=O)c1ccc(Nc2ncc(-c3cn[nH]c3)n3ccnc23)cc1F [Compound 82] | – | > 1000 nM |
| CCN(CC)CCNC(=O)c1ccc(Nc2ncc(-c3cn[nH]c3)n3ccnc23)c(F)c1 [Compound 83] | – | > 1000 nM |
| CN(C)c1ccc(CNC(=O)c2ccc(Nc3ncc(-c4cn[nH]c4)n4ccnc34)cc2)cc1 [Compound 89] | – | > 1000 nM |
| O=C(NCc1ccc(O)cc1)c1ccc(Nc2ncc(-c3cn[nH]c3)n3ccnc23)cc1 [Compound 90, N-(4-Hydroxybenzyl)-4-[5-(1H-pyrazol-4-yl)imidazo[1,2-a]pyrazin-8-ylamino]benzamide] | – | > 1000 nM |
| O=C(NCCc1cccnc1)c1ccc(Nc2ncc(-c3cn[nH]c3)n3ccnc23)cc1 [Compound 93] | – | > 1000 nM |
| CCN(CC)CCNS(=O)(=O)c1ccc(Nc2ncc(-c3ccc(C(N)=O)cc3)n3ccnc23)cc1 [Compound 98] | – | > 1000 nM |
| CN(C)C(CNC(=O)c1ccc(Nc2ncc(-c3cc[nH]c(=O)c3)n3ccnc23)cc1)c1cccnc1 (stereo not drawn) [Compound 114] | – | > 1000 nM |
| CNC(=O)c1ccc(-c2cnc(Nc3ccc(N4CCN(C)CC4)cc3)c3nccn23)cc1 [Compound 116] | – | > 1000 nM |
| CN1CCN(c2ccc(Nc3ncc(-c4csc(C(N)=O)c4)n4ccnc34)cc2)CC1 [Compound 118] | – | > 1000 nM |

| Compound | EC50 (read-out: PBMC EC50) | EC50 (PBMC) |
| --- | --- | --- |
| Cc1[nH]ncc1-c1cnc(Nc2ccc(N3CCN(C)CC3)cc2)c2nccn12 [Compound 119, (4-(4-Methylpiperazin-1-yl)phenyl)-[5-(5-methyl-1H-pyrazol-4-yl)imidazo[1,2-a]pyrazin-8-yl]amine] | – | > 1000 nM |
| Cc1cc(C(N)=O)ccc1-c1cnc(Nc2ccc(N3CCN(C)CC3)cc2)c2nccn12 [Compound 120] | – | > 1000 nM |
| CN1CCN(c2ccc(Nc3ncc(-c4ccc(C(N)=O)c(Cl)c4)n4ccnc34)cc2)CC1 [Compound 124] | – | 501 to 1000 nM |
| CN1CCN(c2ccc(Nc3ncc(-c4ccnc(F)c4)n4ccnc34)cc2)CC1 [Compound 125, [5-(2-Fluoro-pyridin-4-yl)-imidazo[1,2-a]pyrazin-8-yl]-[4-(4-methyl-piperazin-1-yl)-phenyl]-amine] | – | > 1000 nM |
| CN1CCN(c2ccc(Nc3ncc(-c4ccc(C(N)=O)s4)n4ccnc34)cc2)CC1 [Compound 127, (4-(4-Methylpiperazin-1-yl)phenyl)-[5-(2-carboxamido-5-thienyl)imidazo[1,2-a]pyrazin-8-yl]amine] | – | > 1000 nM |
| CN1CCN(c2ccc(Nc3ncc(-c4ccc(C(N)=O)cn4)n4ccnc34)cc2)CC1 [Compound 128] | – | > 1000 nM |
| CN1CCN(c2ccc(Nc3ncc(-c4ccc(C(N)=O)nc4)n4ccnc34)cc2)CC1 [Compound 129, 5-{8-[4-(4-Methyl-piperazin-1-yl)-phenylamino]-imidazo[1,2-a]pyrazin-5-yl}-pyridine-2-carboxylic acid amide] | – | > 1000 nM |
| CN1CCN(c2ccc(Nc3ncc(-c4ccc(C(N)=O)cc4)n4ccnc34)cc2Cl)CC1 [Compound 136, 4-{8-[3-Chloro-4-(4-methyl-piperazin-1-yl)-phenylamino]-imidazo[1,2-a]pyrazin-5-yl}-benzamide] | – | 101 to 500 nM |
| C[C@@H]1CN(C)[C@@H](C)CN1c1ccc(Nc2ncc(-c3ccc(C(N)=O)cc3)n3ccnc23)cc1 [Compound 137] | – | > 1000 nM |
| CN1CCN(c2ccc(Nc3ncc(-c4cscn4)n4ccnc34)cc2)CC1 [Compound 138] | – | 101 to 500 nM |
| CN1CCN(c2ccc(Nc3ncc(-c4ccc(C(N)=O)o4)n4ccnc34)cc2)CC1 [Compound 139, 5-{8-[4-(4-Methyl-piperazin-1-yl)-phenylamino]-imidazo[1,2-a]pyrazin-5-yl}-furan-2-carboxylic acid amide] | – | > 1000 nM |
| CN1CCN(c2ccc(Nc3ncc(-c4cc(F)c(C(N)=O)c(F)c4)n4ccnc34)cc2)CC1 [Compound 140] | – | > 1000 nM |
| Cn1cnnc1-c1ccc(Nc2ncc(-c3ccc(C(N)=O)cc3)n3ccnc23)cc1 [Compound 141] | – | > 1000 nM |
| CC(C)N1CCN(c2ccc(Nc3ncc(-c4ccc(C(N)=O)cc4)n4ccnc34)cc2)CC1 [Compound 142] | – | > 1000 nM |
| CN1CCN(c2ccc(Nc3ncc(-c4ccc(C(N)=O)cc4)n4ccnc34)cc2)CC1 [Compound 143] | – | > 1000 nM |
| NC(=O)c1ccc(-c2cnc(Nc3ccc(N4CCCCC4)cc3)c3nccn23)cc1 [Compound 144] | – | 1 to 100 nM |
| CN1CCN(c2ccc(Nc3ncc(-c4cc(C(N)=O)cs4)n4ccnc34)cc2)CC1 [Compound 145, 5-{8-[4-(4-Methyl-piperazin-1-yl)-phenylamino]-imidazo[1,2-a]pyrazin-5-yl}-thiophene-3-carboxylic acid amide] | – | > 1000 nM |
| NC(=O)c1ccc(-c2cnc(Nc3ccc(OCCN4CCOCC4)cc3)c3nccn23)cc1F [Compound 146] | – | > 1000 nM |
| CN1CCC(Oc2ccc(Nc3ncc(-c4ccc(C(N)=O)c(F)c4)n4ccnc34)cc2)CC1 [Compound 149] | – | > 1000 nM |
| c1cn2c(-c3cn[nH]c3)cnc(Nc3ccc(OCCN4CCOCC4)cc3)c2n1 [Compound 150, [4-(2-Morpholin-4-yl-ethoxy)-phenyl]-[5-(1H-pyrazol-4-yl)-imidazo[1,2-a]pyrazin-8-yl]-amine] | – | > 1000 nM |
| CN1CCN(c2ccc(Nc3ncc(-c4cc(C(N)=O)co4)n4ccnc34)cc2)CC1 [Compound 151] | – | > 1000 nM |
| NC(=O)c1ccc(-c2cnc(Nc3ccc(-c4cccnc4)cc3)c3nccn23)cc1 [Compound 153] | – | 1 to 100 nM |
